In brackets after ≈: the same amount, converted by molar mass.
What was measured:
Assay type in all cases: functional, organism-based
[1] = system: Alternaria solani; experiment: Antifungal activity against Alternaria solani incubated as 10% EC formulation
[2] = system: Fulvia fulva; experiment: Antifungal activity against Passalora fulva incubated as 10% EC formulation
[3] = system: Botrytis cinerea; experiment: Antifungal activity against Botryotinia fuckeliana incubated as 10% EC formulation
[4] = system: Alternaria solani; experiment: Antifungal activity against Alternaria solani incubated as 50% WP formulation
[5] = system: Fulvia fulva; experiment: Antifungal activity against Passalora fulva incubated as 50% WP formulation
[6] = system: Botrytis cinerea; experiment: Antifungal activity against Botryotinia fuckeliana incubated as 50% WP formulation

Structure (SMILES)	EC50 [1]	EC50 [2]	EC50 [3]	EC50 [4]	EC50 [5]	EC50 [6]
C=CCc1ccccc1O [2-ALLYLPHENOL]	31.3 µg/mL (≈ 233 µM)	52.2 µg/mL (≈ 389 µM)	21.7 µg/mL (≈ 162 µM)	–	–	–
CC(C)NC(=O)N1CC(=O)N(c2cc(Cl)cc(Cl)c2)C1=O [IPRODIONE]	–	–	–	56 µg/mL (≈ 169 µM)	48.9 µg/mL (≈ 148 µM)	58.6 µg/mL (≈ 177 µM)
